Test results from patent publication US8268797B2, “Combination therapy for the treatment of cancer” (Isis Pharmaceuticals, Inc., priority 2008, dated 2012).

Tests used:
A549 xenografts = assay: A549 human non-small cell lung cancer xenograft tumor volume in athymic nude mice; assay type: in vivo; conditions: for A549 Xenograft Tumor Volume, Mean / Percent Reduction of A549 Tumor Size on Day 75: ASO 50 mg/kg iv, cisplatin 5 mg/kg IP weekly; for A549 Xenograft Tumor Volume, Mean: nude mice; for Percent Reduction of A549 Tumor Size on Day 75: negative number indicates reduction vs. control
Experimental: (§1) Xenograft studies are carried out as described in Graff et al. (2005) Cancer Res. 65:7462-7469. Five million human cancer cells representing non-small cell lung cancer (line A549; ATCC, accession no. CCL-185; line NCI-H1975; ATCC, accession no. CRL-5908) are injected subcutaneously in the flank of 6-8 week old, athymic nude mice (Harlan, Indianapolis, Ind.) in a 1:1 mixture of serum-free growth medium and matrigel (Becton Dickinson, Bedford, Mass., catalogue #354234). Mice are monitored daily for palpable tumors.
(§2) When tumor volumes reach ˜50-100 mm^3, mice are randomized to treatment groups (Graff et al. (2007) J. Clin. Invest. 117:2638-48). Body weight is monitored each time tumors are measured.
(§3) For treatment, all mice are injected intravenously with the eIF-4E ASO in saline in a total volume of 200 μl. The ASO consists of the nucleotide sequence 5′-[…]-3′ (SEQ ID NO:1), in which every internucleoside linkage is a phosphorothioate linkage, nucleotides 1-5 and 16-20 reading from the 5′ end to the 3′ end each comprise a 2′-O-(2-methoxyethyl) sugar, nucleotides 6-15 are 2′-deoxynucleotides, every cytosine residue is a 5-methylcytosine, and which is in the form of a sodium salt. The mice are first injected with an initial loading dose of 50 mg/kg ASO for 3 consecutive days, followed by 50 mg/kg thrice weekly thereafter.
(§4) Cisplatin dosing begins 8 days after the first ASO dose to allow time for reduction of eIF-4E protein expression. Mice are dosed intraperitoneally (IP) with 2 or 5 mg/kg cisplatin (Teva Parenteral Medicines, Inc.; 0703-5748-11) from an infusion concentrate diluted in saline, in a volume of 200 μl once weekly for 65 days. One mL of infusion concentrate (1 mg/mL) contains 1 mg cisplatin, 9 mg sodium chloride, hydrochloric acid and/or sodium hydroxide to pH 3.2-4.4, and water for injection.
(§5) The vehicle only group is dosed with saline.
(§6) Tumor volumes are calculated measuring the largest (L) and smallest (W) diameters with a caliper. The formula is: Volume=L×W^2×0.534. Tumor volume data are transformed to a log scale to equalize variance across time and treatment groups. The log volume data are analyzed with a two-way repeated measures analysis of variance by time and treatment using SAS PROC MIXED software (SAS Institute Inc, Cary, N.C.) using the spatial power covariance structure. Treatment groups are compared to the control group at each time point and overall. The data may be plotted as means and standard errors for each treatment group versus time. Additivity is assessed in two ways: (1) as an overall interaction effect between the ASO and cisplatin in the repeated measures analysis, and (2) by using the Bliss Independence method on the final day of the study (C. I. Bliss (1939) Ann. AppL Biol. 26:585-615). These two methods yield the same results.

H1975 xenografts = assay: H1975 human non-small cell lung cancer xenograft tumor volume in athymic nude mice; assay type: in vivo; conditions: for H1975 Xenograft Tumor Volume, Mean / Percent Reduction of H1975 Tumor Size on Day 43: ASO 50 mg/kg iv, cisplatin 5 mg/kg IP weekly; for H1975 Xenograft Tumor Volume, Mean: nude mice; for Percent Reduction of H1975 Tumor Size on Day 43: negative number indicates reduction vs. control
Experimental: as §1, §2, §3, §4, §5, §6

For `N.N.[Cl][Pt][Cl]` [Cisplatin, cis-Diamminedichloroplatinum (II), reference compound], the “A549 Xenograft Tumor Volume, Mean” value (A549 xenografts; Day 11) was 85.43 mm^3, the “A549 Xenograft Tumor Volume, Mean” value (A549 xenografts; Day 14) was 94.63 mm^3 and the “A549 Xenograft Tumor Volume, Mean” value (A549 xenografts; Day 18) was 124.68 mm^3. For the same compound, the “A549 Xenograft Tumor Volume, Mean” value (A549 xenografts; Day 21) was 137.74 mm^3, the “A549 Xenograft Tumor Volume, Mean” value (A549 xenografts; Day 25) was 210.75 mm^3 and the “A549 Xenograft Tumor Volume, Mean” value (A549 xenografts; Day 28) was 238.78 mm^3. For the same compound, the “A549 Xenograft Tumor Volume, Mean” value (A549 xenografts; Day 32) was 283.12 mm^3, the “A549 Xenograft Tumor Volume, Mean” value (A549 xenografts; Day 36) was 310.61 mm^3 and the “A549 Xenograft Tumor Volume, Mean” value (A549 xenografts; Day 40) was 367.44 mm^3. For the same compound, the “A549 Xenograft Tumor Volume, Mean” value (A549 xenografts; Day 43) was 412.68 mm^3, the “A549 Xenograft Tumor Volume, Mean” value (A549 xenografts; Day 47) was 405.18 mm^3 and the “A549 Xenograft Tumor Volume, Mean” value (A549 xenografts; Day 50) was 428.84 mm^3. The “A549 Xenograft Tumor Volume, Mean” value (A549 xenografts; Day 54) was 478.35 mm^3, the “A549 Xenograft Tumor Volume, Mean” value (A549 xenografts; Day 57) was 482.77 mm^3 and the “A549 Xenograft Tumor Volume, Mean” value (A549 xenografts; Day 61) was 478.95 mm^3. For the same compound, the “A549 Xenograft Tumor Volume, Mean” value (A549 xenografts; Day 64) was 529.51 mm^3, the “A549 Xenograft Tumor Volume, Mean” value (A549 xenografts; Day 68) was 520.83 mm^3 and the “A549 Xenograft Tumor Volume, Mean” value (A549 xenografts; Day 71) was 564.57 mm^3. The “A549 Xenograft Tumor Volume, Mean” value (A549 xenografts; Day 75) was 535.33 mm^3, the “Percent Reduction of A549 Tumor Size on Day 75” value (A549 xenografts; Day 75) was −31.9% and the “H1975 Xenograft Tumor Volume, Mean” value (H1975 xenografts; Day 7) was 40.02 mm^3. For the same compound, the “H1975 Xenograft Tumor Volume, Mean” value (H1975 xenografts; Day 12) was 90.76 mm^3, the “H1975 Xenograft Tumor Volume, Mean” value (H1975 xenografts; Day 15) was 112.12 mm^3 and the “H1975 Xenograft Tumor Volume, Mean” value (H1975 xenografts; Day 19) was 172.5 mm^3. The “H1975 Xenograft Tumor Volume, Mean” value (H1975 xenografts; Day 22) was 295.95 mm^3, the “H1975 Xenograft Tumor Volume, Mean” value (H1975 xenografts; Day 26) was 595.06 mm^3 and the “H1975 Xenograft Tumor Volume, Mean” value (H1975 xenografts; Day 29) was 863.18 mm^3. The “H1975 Xenograft Tumor Volume, Mean” value (H1975 xenografts; Day 33) was 1221.36 mm^3, the “H1975 Xenograft Tumor Volume, Mean” value (H1975 xenografts; Day 36) was 1740.85 mm^3 and the “H1975 Xenograft Tumor Volume, Mean” value (H1975 xenografts; Day 40) was 2095.44 mm^3. The “H1975 Xenograft Tumor Volume, Mean” value (H1975 xenografts; Day 43) was 2798.22 mm^3 and the “Percent Reduction of H1975 Tumor Size on Day 43” value (H1975 xenografts; Day 43) was −19.6%.
In the case of “d(P-thio) ([2′-O-(2-methoxyethyl)]m5rU-([2′-O-(2-methoxyethyl)]rG-([2′-O-(2-methoxyethyl)]m5rU-([2′-O-(2-methoxyethyl)]mSrC-([2′-O-(2-methoxyethyl)]rA-T-A-T-T-m5C-m5C-T-G-G-A ([2′-O-(2-methoxyethyl)]m5rU-([2′-O-(2-methoxyethyl)]m5rC-([2′-O-(2-methoxyethyl)]m5rC-([2′-O-(2-methoxyethyl)]m5rU-([2′-O-(2-methoxyethyl)]m5rU) [eIF-4E ASO]”, the “sensitization of tumor cells to the growth- and proliferation-inhibiting action of cisplatin” value (A549 xenografts; A549 xenografts) is reported as “sensitizes the tumor cells”, the “A549 Xenograft Tumor Volume, Mean” value (A549 xenografts; Day 11) is reported as 86.39 mm^3 and the “A549 Xenograft Tumor Volume, Mean” value (A549 xenografts; Day 14) is reported as 87.36 mm^3. The “A549 Xenograft Tumor Volume, Mean” value (A549 xenografts; Day 18) was 141.7 mm^3, the “A549 Xenograft Tumor Volume, Mean” value (A549 xenografts; Day 21) was 134.88 mm^3 and the “A549 Xenograft Tumor Volume, Mean” value (A549 xenografts; Day 25) was 212.4 mm^3. For the same compound, the “A549 Xenograft Tumor Volume, Mean” value (A549 xenografts; Day 28) was 251.64 mm^3, the “A549 Xenograft Tumor Volume, Mean” value (A549 xenografts; Day 32) was 309.94 mm^3 and the “A549 Xenograft Tumor Volume, Mean” value (A549 xenografts; Day 36) was 402.67 mm^3. The “A549 Xenograft Tumor Volume, Mean” value (A549 xenografts; Day 40) was 439.54 mm^3, the “A549 Xenograft Tumor Volume, Mean” value (A549 xenografts; Day 43) was 499.06 mm^3 and the “A549 Xenograft Tumor Volume, Mean” value (A549 xenografts; Day 47) was 455.53 mm^3. For the same compound, the “A549 Xenograft Tumor Volume, Mean” value (A549 xenografts; Day 50) was 463.92 mm^3, the “A549 Xenograft Tumor Volume, Mean” value (A549 xenografts; Day 54) was 520.9 mm^3 and the “A549 Xenograft Tumor Volume, Mean” value (A549 xenografts; Day 57) was 550.29 mm^3. The “A549 Xenograft Tumor Volume, Mean” value (A549 xenografts; Day 61) was 597.72 mm^3, the “A549 Xenograft Tumor Volume, Mean” value (A549 xenografts; Day 64) was 618.75 mm^3 and the “A549 Xenograft Tumor Volume, Mean” value (A549 xenografts; Day 68) was 594.08 mm^3. The “A549 Xenograft Tumor Volume, Mean” value (A549 xenografts; Day 71) was 566.2 mm^3, the “A549 Xenograft Tumor Volume, Mean” value (A549 xenografts; Day 75) was 608.86 mm^3 and the “Percent Reduction of A549 Tumor Size on Day 75” value (A549 xenografts; Day 75) was −22.6%. For the same compound, the “H1975 Xenograft Tumor Volume, Mean” value (H1975 xenografts; Day 7) was 45.83 mm^3, the “H1975 Xenograft Tumor Volume, Mean” value (H1975 xenografts; Day 12) was 85.9 mm^3 and the “H1975 Xenograft Tumor Volume, Mean” value (H1975 xenografts; Day 15) was 121.6 mm^3. The “H1975 Xenograft Tumor Volume, Mean” value (H1975 xenografts; Day 19) was 255.64 mm^3, the “H1975 Xenograft Tumor Volume, Mean” value (H1975 xenografts; Day 22) was 376.84 mm^3 and the “H1975 Xenograft Tumor Volume, Mean” value (H1975 xenografts; Day 26) was 742.98 mm^3. The “H1975 Xenograft Tumor Volume, Mean” value (H1975 xenografts; Day 29) was 1100.19 mm^3, the “H1975 Xenograft Tumor Volume, Mean” value (H1975 xenografts; Day 33) was 1485.65 mm^3 and the “H1975 Xenograft Tumor Volume, Mean” value (H1975 xenografts; Day 36) was 2164.31 mm^3. For the same compound, the “H1975 Xenograft Tumor Volume, Mean” value (H1975 xenografts; Day 40) was 2901.75 mm^3, the “H1975 Xenograft Tumor Volume, Mean” value (H1975 xenografts; Day 43) was 3881.36 mm^3 and the “Percent Reduction of H1975 Tumor Size on Day 43” value (H1975 xenografts; Day 43) was 11.5%. The “sensitization of tumor cells to the growth- and proliferation-inhibiting action of cisplatin” value (H1975 xenografts; H1975 xenografts) was “sensitizes the tumor cells”.
